# Data taken from patent publication US20230099344A1, “COMPOUNDS AND METHODS FOR THE TARGETED DEGRADATION OF IRAK-4” (Arvinas Operations, Inc., priority 2021, published 2023).
# Columns and labels:
# IL6 [1] = test: IL-1β stimulated IL6 inhibition assay in PBMC; format: cell-based; details: PBMC, human PBMCs, IL-1β stimulation, compound overnight, IL6 by MSD after 24 hrs; for IC50: Homo sapiens, 24 h, read-out: IL1β stim IL6 inhibition IC50; for Emax: read-out: IL1β stim IL6 inhibition Ymax
# In short: (§1)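 Read-out: MSD quantification of IL6 or IL8 in media collected 24 hrs after stimulation. Human PBMCs (2.0×10^6 cells/mL) received compound overnight before stimulant dosing at an EC50 concentration determined per donor.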
# IL8 = test: IL-1β stimulated IL8 inhibition assay in PBMC; format: cell-based; details: human PBMCs, IL-1β stimulation, compound overnight, IL8 by MSD after 24 hrs; for IC50: read-out: IL1β stim IL8 inhibition IC50; for Emax: read-out: IL1β stim IL8 inhibition Ymax
# In short: as §1
# IL6 [2] = test: LPS stimulated IL6 inhibition assay in PBMC; format: cell-based; details: Homo sapiens, PBMC, 24 h, human PBMCs, LPS stimulation, compound overnight, IL6 by MSD after 24 hrs; for Dmax: read-out: LPS Stim IL6 inhibition Dmax; for IC50: read-out: LPS stim IL6 inhibition IC50
# In short: as §1
# IL6 [3] = test: R848 stimulated IL6 inhibition assay in PBMC; format: cell-based; details: PBMC, human PBMCs, R848 stimulation, compound overnight, IL6 by MSD after 24 hrs; for Dmax: Homo sapiens, 24 h, read-out: R848 stim IL6 inhibition Dmax; for IC50: read-out: R848 stim IL6 inhibition IC50
# In short: as §1
# IRAK-4 [4] = target: T1, IRAK-4 (Homo sapiens, UniProt Q9NWZ3); test: IRAK-4 ELISA, OCI-Ly10 degradation; format: cell-based; set-up: endogenous in cells; details: treated overnight; for Dmax: OCI-Ly10, OCI-Ly10 cells; for DC50: OCI-Ly10 cells
# T1 sequence (Q9NWZ3 1-460): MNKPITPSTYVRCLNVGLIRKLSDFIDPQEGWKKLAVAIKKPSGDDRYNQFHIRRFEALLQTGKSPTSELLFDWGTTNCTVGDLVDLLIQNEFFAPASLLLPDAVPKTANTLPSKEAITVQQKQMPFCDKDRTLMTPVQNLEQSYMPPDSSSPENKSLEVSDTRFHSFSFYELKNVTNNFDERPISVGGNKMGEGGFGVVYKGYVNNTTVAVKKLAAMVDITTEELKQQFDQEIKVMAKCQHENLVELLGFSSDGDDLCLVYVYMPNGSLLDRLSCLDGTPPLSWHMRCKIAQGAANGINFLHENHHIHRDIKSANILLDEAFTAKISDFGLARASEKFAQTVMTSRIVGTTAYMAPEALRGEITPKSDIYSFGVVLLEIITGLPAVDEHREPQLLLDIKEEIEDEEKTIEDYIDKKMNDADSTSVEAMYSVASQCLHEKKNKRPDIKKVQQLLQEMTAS
# In short: (§2)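 Steps: seed cells (OCI-Ly10 1×10^6/ml; PBMC 2×10^6/ml); add compound the same day; incubate overnight; lyse; quantify IRAK-4 by matched-pair ELISA.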
# IRAK-4 [5] = target: T1, IRAK-4; test: IRAK-4 ELISA, PBMC degradation; format: cell-based; set-up: endogenous in cells; host or cells: PBMC; details: treated overnight
# In short: as §2
# IRAK-4 [6] = target: T2, IRAK-4 (Mus musculus, UniProt Q8R4K2); test: PD study in wild type mice (spleen and lung); format: in vivo; details: oral 10, 30 or 90 mg/kg, terminated 24 h later, ELISA, vs vehicle, FIGS. 3A and 3B
# T2 construct: plasma, spleen and lung tissue were collected for analysis of compound concentration and IRAK-4 quantification; from tissue; host or cells: spleen and lung of wild type mice
# T2 sequence (Q8R4K2 1-459): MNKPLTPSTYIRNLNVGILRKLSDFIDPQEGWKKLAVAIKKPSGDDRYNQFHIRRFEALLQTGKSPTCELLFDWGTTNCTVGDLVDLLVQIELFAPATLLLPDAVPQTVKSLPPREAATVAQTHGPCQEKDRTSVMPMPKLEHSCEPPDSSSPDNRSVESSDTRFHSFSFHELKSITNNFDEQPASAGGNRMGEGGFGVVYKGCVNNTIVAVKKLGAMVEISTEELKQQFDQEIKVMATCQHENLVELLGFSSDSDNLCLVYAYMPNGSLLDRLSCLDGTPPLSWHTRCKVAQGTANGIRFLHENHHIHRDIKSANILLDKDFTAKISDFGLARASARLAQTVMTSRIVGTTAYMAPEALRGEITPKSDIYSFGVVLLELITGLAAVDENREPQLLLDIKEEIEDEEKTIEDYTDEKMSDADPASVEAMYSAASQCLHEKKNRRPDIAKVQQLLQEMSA
# Protocol: FIGS. 3A and 3B. PD study in wild type mice.
# A PD Study in Wild Type Mice was Performed
# In FIGS. 3A and 3B, mice were randomly assigned to each treatment group. Animals were dosed orally with 10, 30, or 90 mg/kg compound formulated in 10% DMSO, 90% (2% Tween 80 in PEG 400) and terminated 24 h later. At termination, plasma, spleen and lung tissue were collected for analysis of compound concentration and IRAK-4 quantification. Spleen and lung were snap frozen. IRAK-4 content in any tissue is assessed with the same protocol described for tumor lysates.
# IRAK-4 [7] = target: T1, IRAK-4; test: PD study in C.B.17 SCID mice with OCI-LY1 tumor xenograft; format: in vivo; set-up: from tissue; host or cells: OCI-Ly1 tumour xenograft from C.B.17 SCID mice; details: OCI-Ly1 tumor lysate, ELISA normalized to total protein; oral 5, 15 or 50 mg/kg, 24 hours post-dose; vs vehicle; FIG. 2
# Protocol: FIG. 2. PD study in C.B.17 SCID mice with OCI-LY1 tumor xenograft.
# PD Study for with in C.B.17 SCID and WT Mice
# Cell culture: OCI-Ly1 tumor cells were maintained as a suspension in IMDM medium supplemented with 20% fetal bovine serum under an atmosphere of 5% C02 in air at 37° C. Cell density was maintained below 1×10^6/mL.
# Animals: Female C.B. 17 SCID mice aged 6-8 weeks weighing between 16-18 g were used and maintained according to IACUC protocols.
# Tumor Inoculation: Each mouse was inoculated with OCI-Ly1 tumor cells (10×106) in 0.1 mL of RPMI with Matrigel. Treatment was initiated when the tumor sizes reached […].
# A PD Study in C.B.17 SCID Mice with OCI-LY1 Tumor Xenograft was Performed
# In FIG. 2, animals were dosed orally after tumors were inoculated and the tumor sizes reached […], with 5, 15, or 50 mg/kg formulated with 10% DMSO, 90% (2% Tween 80 in PEG 400) and sacrificed humanely 24 hours post-dose. Blood was obtained for isolation of plasma for terminal compound exposure. Tumors was removed and divided in 2 portions, one each for terminal compound concentration and for determination of IRAK-4 content. Compound concentrations were determined by LC/MS with calibrated standards. IRAK-4 content in tumor lysate was quantified by ELISA and normalized to total protein concentration per sample. […]
Structure (SMILES),IC50 (IL6 [1]) [nM],Emax (IL6 [1]) [%],IC50 (IL8) [nM],Emax (IL8) [%],Dmax (IL6 [2]) [%],IC50 (IL6 [2]) [nM],Dmax (IL6 [3]) [%],IC50 (IL6 [3]) [nM],Dmax (IRAK-4 [4]) [%],DC50 (IRAK-4 [4]) [nM],DC50 (IRAK-4 [5]) [nM],Dmax (IRAK-4 [5]) [%],PBMC DC90 (IRAK-4 [5]),IRAK-4 concentration in spleen and lung samples (IRAK-4 [6]),IRAK-4 concentration in the tumor samples (IRAK-4 [7])
"CC(C)Oc1cc2c(cc1NC(=O)c1cnn3cccnc13)CN(C1CCN(CC3CCN(c4ccc5c(c4)C(=O)N(C4CCC(=O)NC4=O)C5=O)CC3)CC1)C2=O (stereo not drawn) [Example 1, N-(2-(1-((1-(2-(2,6-dioxopiperidin-3-yl)-1,3-dioxoisoindolin-5-yl)piperidin-4-yl)methyl)piperidin-4-yl)-6-isopropoxy-1-oxoisoindolin-5-yl)pyrazolo[1,5-a]pyrimidine-3-carboxamide]",< 10,≥ 90,10 to 50,70 to 80,80 to 90,< 10,≥ 90,< 10,≥ 90,< 10,< 1,≥ 90,1 nM,–,–
COc1cc(N2CCC(CN3CCC(N4Cc5cc(NC(=O)c6cnn7cccnc67)c(OC(C)C)cc5C4=O)CC3)CC2)cc2c1C(=O)N(C1CCC(=O)NC1=O)C2 (stereo not drawn) [Example 23],< 10,≥ 90,10 to 50,80 to 90,70 to 80,10 to 50,≥ 90,10 to 50,80 to 90,< 10,< 1,≥ 90,A (A represents a DC90 value <10.0 nM),–,–
O=C1CCC(N2Cc3cc(N4CCC(CN5CCC(N6Cc7cc(NC(=O)c8cnn9cccnc89)c(N8CCC(N9CCC9)CC8)cc7C6=O)CC5)CC4)ccc3C2=O)C(=O)N1 (stereo not drawn) [Example 97],< 10,≥ 90,10 to 50,≥ 90,≥ 90,< 10,≥ 90,10 to 50,≥ 90,< 10,< 1,80 to 90,A (A represents a DC90 value <10.0 nM),–,–
CC(C)Oc1cc2c(cc1NC(=O)c1cnn3cccnc13)CN(C1CCN(C(C)(C)C3CN(c4ccc5c(c4)C(=O)N(C4CCC(=O)NC4=O)C5=O)C3)CC1)C2=O (stereo not drawn) [Example 112],–,–,–,–,≥ 90,10 to 50,≥ 90,10 to 50,–,–,1 to 5,≥ 90,A (A represents a DC90 value <10.0 nM),much lower,lower
"O=C1CCC(N2C(=O)c3ccc(N4CC(F)(CN5CCC(n6cc7cc(NC(=O)c8cnn9cccnc89)c(OCC8CC8)cc7n6)CC5)C4)cc3C2=O)C(=O)N1 (stereo not drawn) [Example 161, N-(6-(cyclopropylmethoxy)-2-(1-((1-(2-(2,6-dioxopiperidin-3-yl)-1,3-dioxoisoindolin-5-yl)-3-fluoroazetidin-3-yl)methyl)piperidin-4-yl)-2H-indazol-5-yl)pyrazolo[1,5-a]pyrimidine-3-carboxamide]",10 to 50,80 to 90,≥ 100,–,70 to 80,10 to 50,≥ 90,10 to 50,≥ 90,10 to 50,1 to 5,≥ 90,B (B represents a DC90 value ≥10.0 nM and <25.0 nM),–,–
O=C1CCC(N2C(=O)c3ccc(N4CCC(CN5CCC(n6cc7cc(NC(=O)c8cnn9cccnc89)c(OCC8CC8)cc7n6)CC5)CC4)cc3C2=O)C(=O)N1 (stereo not drawn) [Example 165],< 10,80 to 90,10 to 50,70 to 80,70 to 80,10 to 50,≥ 90,10 to 50,≥ 90,10 to 50,1 to 5,≥ 90,A (A represents a DC90 value <10.0 nM),–,–
O=C1CCC(N2C(=O)c3ccc(N4CCN(CCN5CCC(n6cc7cc(NC(=O)c8cnn9cccnc89)c(OCC8CC8)cc7n6)CC5)CC4)cc3C2=O)C(=O)N1 (stereo not drawn) [Example 167],10 to 50,≥ 90,≥ 100,80 to 90,–,–,–,–,≥ 90,< 10,< 1,≥ 90,A (A represents a DC90 value <10.0 nM),much lower,–
"CC(C)Oc1cc2c(cc1NC(=O)c1cnn3cccnc13)CN([C@H]1CC[C@H](N(C)C3CN(c4ccc5c(c4)C(=O)N(C4CCC(=O)NC4=O)C5=O)C3)CC1)C2=O (stereo partly drawn) [Example 313, N-(2-((1r,4r)-4-((1-(2-(2,6-dioxopiperidin-3-yl)-1,3-dioxoisoindolin-5-yl)azetidin-3-yl)(methyl)amino)cyclohexyl)-6-isopropoxy-1-oxoisoindolin-5-yl)pyrazolo[1,5-a]pyrimidine-3-carboxamide]",< 10,≥ 90,< 10,< 70,80 to 90,10 to 50,≥ 90,< 10,≥ 90,< 10,< 1,≥ 90,A (A represents a DC90 value <10.0 nM),–,–
